Experimental data taken from patent US8846733B2, “Oxazolyl-methylether derivatives as ALX receptor agonists” (Actelion Pharmaceuticals Ltd., priority 2010, dated 2014).

Columns and labels:
[1] = Plasma stability assay, human plasma; format: in vitro ADME; conditions: for remaining concentration at Tlast / half-life at 1 μM: human plasma; for half-life at 1 μM: pH 7.4, 37° C.
Method: (§1) Rat or human plasma adjusted at pH 7.4 with lactic acid or ammonium hydroxide, were equilibrated at 37° C. under orbital shaking in an incubator containing 5% CO2. The reaction was initiated by the addition of 1 μM of compounds (1 μl of 1 mM stock solution in DMSO in 999 μl of plasma). At 0.01 h, 0.25 h, 0.5 h, 1 h, 2 h, 4 h, 6 h and 24 h, aliquots (30 μl) were transferred in a 96 well plate containing 90 μl MeOH placed on ice to stop the reaction. After vortexing for 20 min at 1400 rpm on an Eppendorf thermomixer, the plates were centrifuged at 3220 g for 20 min at 4° C. and the supernatants were analyzed with LC-MSMS. Calibration samples in plasma containing 0.1% of dichlorvos were prepared and analysed in parallel to the incubation samples to allow the quantification. Half lives in hours were then calculated. In addition the remaining concentration of the respective compound after time Tlast relative to the concentration at the beginning has been determined (table 3).

[2] = Plasma stability assay, rat plasma; format: in vitro ADME; conditions: for half-life at 1 μM: pH 7.4, 37° C.
Method: as §1

[3] = Plasma stability assay with tritiated compounds, rat plasma; format: in vitro ADME
Method: (§2) Rat or human plasma adjusted at pH 7.4 with lactic acid were equilibrated at 37° C. under orbital shaking. The reaction was initiated by the addition of 10 μM of tritiated compound (7.5 μl of 1 mM stock solution in DMSO in 742.5 μl of plasma). At the beginning and after 4 h, 6 h and 24 h, aliquots (100 μl) were transferred in a tube containing 400 μl MeOH placed on ice to stop the reaction. After vortexing for 20 min at 1400 rpm on an Eppendorf thermomixer, the plates were centrifuged at 3220 g for 20 min at 4° C. and an aliquot of supernatants was analyzed with liquid chromatography coupled to a H3-radiodetector. The remaining pellet was further extracted with AcCN in three additional cycles of resuspension, mixing 20 min at 2000 rpm on an eppendorf thermomixer and centrifugation (3220 g for 20 min at 4° C.). The total radioactivity was measured in the collected supernatants. The final pellet was then solubilized in NaOH 1N and the total radioactivity was measured (table 4).

[4] = Plasma stability assay with tritiated compounds, human plasma; format: in vitro ADME
Method: as §2

[5] = target: T1, recombinant human ALX receptor (Homo sapiens, UniProt P25090); test: Intracellular calcium measurements (FLIPR), ALX receptor agonistic activity; format: cell-based; conditions: HEK293-hALXR-Gα16 cells; Table 1, exemplified compounds
T1 construct: expressed in transfected cells; host or cells: HEK293 (HEK293-hALXR-Gα16)
T1 sequence (P25090 1-351): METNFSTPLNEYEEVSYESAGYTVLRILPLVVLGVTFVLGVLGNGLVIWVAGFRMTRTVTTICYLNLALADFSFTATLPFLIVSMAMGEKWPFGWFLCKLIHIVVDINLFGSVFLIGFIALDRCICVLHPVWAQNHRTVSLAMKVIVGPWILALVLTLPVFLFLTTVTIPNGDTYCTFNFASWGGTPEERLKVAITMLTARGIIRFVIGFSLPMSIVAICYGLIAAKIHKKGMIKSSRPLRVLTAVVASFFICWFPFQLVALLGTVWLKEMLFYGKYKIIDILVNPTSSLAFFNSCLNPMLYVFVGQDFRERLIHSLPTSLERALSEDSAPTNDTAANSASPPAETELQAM
Method: The ALX receptor agonistic activity of the compounds of formula (I) is determined in accordance with the following experimental method.
Intracellular Calcium Measurements:
Cells expressing recombinant human ALX receptor and the G-protein Gα16 (HEK293-hALXR-Gα16) were grown to 80% confluency in Growing Medium (GM). Cells were detached from culture dishes with a cell dissociation buffer (Invitrogen, 13151-014), and collected by centrifugation at 1,000 rpm at rt for 5 min in Assay Buffer (AB) (equal parts of Hank's BSS (Gibco, 14065-049) and DMEM without Phenol Red (Gibco, 11880-028)). After 60 min incubation at 37° C. under 5% CO2 in AB supplemented with 1 μM Fluo-4 (AM) (Invitrogen, F14202) and 20 mM HEPES (Gibco, 15630-056), the cells were washed and resuspended in AB. They were then seeded onto 384-well FLIPR assay plates (Greiner, 781091) at 50,000 cells in 70 μl per well and sedimented by centrifugation at 1,000 rpm for 1 min. Stock solutions of test compounds were made up at a concentration of 10 mM in DMSO, and serially diluted in AB to concentrations required for activation dose response curves. WKYMVm (Phoenix Peptides) was used as a reference agonist. A FLIPR Tetra instrument (Molecular Devices) was operated according to the manufacturer's standard instructions, adding 4 μl of test compound dissolved at 10 mM in DMSO and diluted prior to the experiment in assay buffer to obtain the desired final concentration. Changes in fluorescence were monitored before and after the addition of test compounds at lex=488 nm and lem=540 nm. Emission peak values above base level after compounds addition were exported after base line subtraction. Values were normalized to high-level control (WKYMVm compound, 10 nM final concentration) after subtraction of the base line value (AB addition).

CC(=O)c1coc(Cn2ncc(NC(=O)c3nc(C)oc3-c3cccc(C)c3)n2)n1 [reference compound 11, N-(2-((4-acetyloxazol-2-yl)methyl)-2H-1,2,3-triazol-4-yl)-2-methyl-5-(m-tolyl)oxazole-4-carboxamide]
remaining concentration at Tlast ([1]; Tlast 6 h): 18%
half-life at 1 μM [1]: 2.4 h
remaining concentration at Tlast ([2]; Tlast 6 h): 42%
half-life at 1 μM [2]: 4.7 h
total radioactivity ([3]; rat plasma pellet, nominal incubation time 0.01 h): 419 dpm
total radioactivity ([3]; rat plasma pellet, nominal incubation time 4.0 h): 124853 dpm
total radioactivity ([3]; rat plasma pellet, nominal incubation time 6.4 h): 153683 dpm
total radioactivity ([3]; rat plasma pellet, nominal incubation time 24.4 h): 180032 dpm
total radioactivity ([3]; rat plasma supernatant, nominal incubation time 0.01 h, 10 μM tritiated compound): 173116 dpm
total radioactivity ([3]; rat plasma supernatant, nominal incubation time 4.0 h): 94798 dpm
total radioactivity ([3]; rat plasma supernatant, nominal incubation time 6.4 h): 45228 dpm
total radioactivity ([3]; rat plasma supernatant, nominal incubation time 24.4 h): 4816 dpm
total radioactivity ([4]; human plasma pellet, nominal incubation time 0.01 h): 918 dpm
total radioactivity ([4]; human plasma pellet, nominal incubation time 4.0 h): 170136 dpm
total radioactivity ([4]; human plasma pellet, nominal incubation time 6.4 h): 185420 dpm
total radioactivity ([4]; human plasma pellet, nominal incubation time 24.4 h): 227567 dpm
total radioactivity ([4]; human plasma supernatant, nominal incubation time 0.01 h, 10 μM tritiated compound): 158854 dpm
total radioactivity ([4]; human plasma supernatant, nominal incubation time 4.0 h): 38918 dpm
total radioactivity ([4]; human plasma supernatant, nominal incubation time 6.4 h): 10532 dpm
total radioactivity ([4]; human plasma supernatant, nominal incubation time 24.4 h): 3134 dpm
association of drug related material with plasma proteins, in words ([4]; rat and human plasma, tritiated compound, radioactivity moving from supernatant to pellet): strong association of drug related material with plasma proteins

COCc1coc(Cn2ncc(NC(=O)c3nc(C)oc3-c3cccc(C)c3)n2)n1 [Example 2, N-(2-((4-(Methoxymethyl)oxazol-2-yl)methyl)-2H-1,2,3-triazol-4-yl)-2-methyl-5-(m-tolyl)oxazole-4-carboxamide]
EC50 [5]: 1.7 nM
remaining concentration at Tlast ([1]; Tlast 24 h): 101%
half-life at 1 μM [1]: > 24 h
stability in plasma, in words ([1]; rat and human plasma, compared with reference compound 11 / compounds of WO 2009/077990): remarkably more stable
remaining concentration at Tlast ([2]; Tlast 24 h): 88%
half-life at 1 μM [2]: > 24 h

COCc1coc(Cn2ncc(NC(=O)c3nc(C)oc3-c3cccc(OC(F)(F)F)c3)n2)n1 [Example 11, N-(2-((4-(Methoxymethyl)oxazol-2-yl)methyl)-2H-1,2,3-triazol-4-yl)-2-methyl-5-(3-(trifluoromethoxy)phenyl)oxazole-4-carboxamide]
EC50 [5]: 7.4 nM
